Reference: patent US7750003B2, “Compounds-943” (AstraZeneca AB, priority 2006, dated 2010)
pIC50: −log10 of the molar value.

Target: recombinant mTOR (FLAG-tagged, residues 1362-2549) (Homo sapiens, UniProt P42345)
Assay: In vitro mTOR kinase assay (Test (a), AlphaScreen)
Format: biochemical
Settings: ATP 20 μM, read-out: Test (a): IC50 versus mTOR kinase
Procedure, shortened: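 AlphaScreen read-out: a phospho-T389 p70 S6K antibody on acceptor beads captures the phosphorylated biotin-peptide on donor beads, with signal loss indicating inhibition.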

recombinant mTOR (FLAG-tagged, residues 1362-2549), sequence (P42345 1362-2549): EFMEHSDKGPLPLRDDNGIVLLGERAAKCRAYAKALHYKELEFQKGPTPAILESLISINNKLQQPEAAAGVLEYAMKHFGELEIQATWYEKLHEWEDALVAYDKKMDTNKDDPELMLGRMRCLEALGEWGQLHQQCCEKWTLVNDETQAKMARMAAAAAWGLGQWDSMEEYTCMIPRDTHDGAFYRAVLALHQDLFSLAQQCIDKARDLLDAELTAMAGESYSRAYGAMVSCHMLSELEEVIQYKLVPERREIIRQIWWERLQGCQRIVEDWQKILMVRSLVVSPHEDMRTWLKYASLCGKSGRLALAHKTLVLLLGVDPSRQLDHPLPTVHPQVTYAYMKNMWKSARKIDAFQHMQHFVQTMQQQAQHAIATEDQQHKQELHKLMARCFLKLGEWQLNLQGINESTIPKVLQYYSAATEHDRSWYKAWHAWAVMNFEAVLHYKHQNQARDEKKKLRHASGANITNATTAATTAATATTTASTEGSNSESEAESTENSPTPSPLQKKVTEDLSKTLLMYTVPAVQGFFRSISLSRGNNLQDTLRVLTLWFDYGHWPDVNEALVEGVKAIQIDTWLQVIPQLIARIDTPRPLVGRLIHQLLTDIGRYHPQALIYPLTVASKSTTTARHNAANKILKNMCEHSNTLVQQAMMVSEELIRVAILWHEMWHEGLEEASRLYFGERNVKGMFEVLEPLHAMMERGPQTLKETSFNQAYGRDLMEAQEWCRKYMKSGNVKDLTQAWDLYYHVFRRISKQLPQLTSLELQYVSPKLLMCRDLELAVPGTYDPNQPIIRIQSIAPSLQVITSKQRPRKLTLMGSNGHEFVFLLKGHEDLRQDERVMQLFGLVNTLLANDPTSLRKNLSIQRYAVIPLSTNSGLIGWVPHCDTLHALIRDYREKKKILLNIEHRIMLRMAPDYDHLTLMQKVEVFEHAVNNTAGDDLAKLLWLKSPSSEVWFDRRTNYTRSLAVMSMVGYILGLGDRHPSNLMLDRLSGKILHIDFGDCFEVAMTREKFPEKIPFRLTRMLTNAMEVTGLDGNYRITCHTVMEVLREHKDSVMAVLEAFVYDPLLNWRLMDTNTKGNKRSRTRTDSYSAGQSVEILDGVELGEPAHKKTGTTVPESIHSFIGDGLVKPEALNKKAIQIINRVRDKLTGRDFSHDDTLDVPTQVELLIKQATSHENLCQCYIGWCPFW

SMILES	pIC50
C[C@H]1COCCN1c1cc(CN2CCS(=O)(=O)CC2)nc(-c2ccc(NC(=O)NC3CC3)cc2)n1 [Example 50, 3-Cyclopropyl-1-[4-[4-[(1,1-dioxo-1,4-thiazinan-4-yl)methyl]-6-[(3S)-3-methylmorpholin-4-yl]pyrimidin-2-yl]phenyl]urea]	8.80
C[C@H]1COCCN1c1cc(CN2CCN(C)CC2)nc(-c2ccc(NC(=O)NCc3cnn(C)c3)cc2)n1 [Example 52, 1-[4-[4-[(3S)-3-Methylmorpholin-4-yl]-6-[(4-methylpiperazin-1-yl)methyl]pyrimidin-2-yl]phenyl]-3-[(1-methylpyrazol-4-yl)methyl]urea]	5.85
CC(=O)NCCS(=O)(=O)Cc1cc(N2CCOC[C@@H]2C)nc(-c2ccc(NC(=O)NCc3cnn(C)c3)cc2)n1 [Example 53, N-[2-[[6-[(3S)-3-methylmorpholin-4-yl]-2-[4-[(1-methylpyrazol-4-yl)methylcarbamoylamino]phenyl]pyrimidin-4-yl]methylsulfonyl]ethyl]acetamide]	6.19
C[C@H]1COCCN1c1cc(CS(=O)(=O)C2CC2)nc(-c2ccc(NC(=O)NC3CC3)cc2)n1 [Example 55, 3-Cyclopropyl-1-[4-[4-(cyclopropylsulfonylmethyl)-6-[(3S)-3-methylmorpholin-4-yl]pyrimidin-2-yl]phenyl]urea]	7.21
C[C@H]1COCCN1c1cc(C(C)(C)S(=O)(=O)C2CC2)nc(-c2ccc(NC(=O)NC3CC3)cc2)n1 [Example 56, 3-Cyclopropyl-1-[4-[4-(2-cyclopropylsulfonylpropan-2-yl)-6-[(3S)-3-methylmorpholin-4-yl]pyrimidin-2-yl]phenyl]urea]	5.62
CCNC(=O)Nc1ccc(-c2nc(CS(=O)(=O)c3ccccn3)cc(N3CCOC[C@@H]3C)n2)cc1 [Example 71, 3-Ethyl-1-[4-[4-[(3S)-3-methylmorpholin-4-yl]-6-(pyridin-2-ylsulfonylmethyl)pyrimidin-2-yl]phenyl]urea]	7.49

Other lines, results leading:

pIC50	SMILES
6.82	C[C@H]1COCCN1c1cc(CN(C)CCO)nc(-c2ccc(NC(=O)NC3CC3)cc2)n1 [Example 49a, 3-cyclopropyl-1-[4-[4-[(2-hydroxyethyl-methyl-amino)methyl]-6-[(3S)-3-methylmorpholin-4-yl]pyrimidin-2-yl]phenyl]urea]
7.85	C[C@H]1COCCN1c1cc(CN2CCN(C)CC2)nc(-c2ccc(NC(=O)NC3CC3)cc2)n1 [Example 49b, 3-cyclopropyl-1-[4-[4-[(3S)-3-methylmorpholin-4-yl]-6-[(4-methylpiperazin-1-yl)methyl]pyrimidin-2-yl]phenyl]urea]
7.40	COCCNCc1cc(N2CCOC[C@@H]2C)nc(-c2ccc(NC(=O)NC3CC3)cc2)n1 [Example 49c, 3-cyclopropyl-1-[4-[4-[(2-methoxyethylamino)methyl]-6-[(3S)-3-methylmorpholin-4-yl]pyrimidin-2-yl]phenyl]urea]
7.49	C[C@H]1COCCN1c1cc(CNCCCN(C)C)nc(-c2ccc(NC(=O)NC3CC3)cc2)n1 [Example 49e, 3-cyclopropyl-1-[4-[4-[(3-dimethylaminopropylamino)methyl]-6-[(3S)-3-methylmorpholin-4-yl]pyrimidin-2-yl]phenyl]urea]
6.70	C[C@H]1COCCN1c1cc(CN2CCOCC2)nc(-c2ccc(NC(=O)NC3CC3)cc2)n1 [Example 49f, 3-cyclopropyl-1-[4-[4-[(3S)-3-methylmorpholin-4-yl]-6-(morpholin-4-ylmethyl)pyrimidin-2-yl]phenyl]urea]
7.06	C[C@H]1COCCN1c1cc(CNCCN(C)C)nc(-c2ccc(NC(=O)NC3CC3)cc2)n1 [Example 49g, 3-cyclopropyl-1-[4-[4-[(2-dimethylaminoethylamino)methyl]-6-[(3S)-3-methylmorpholin-4-yl]pyrimidin-2-yl]phenyl]urea]
6.74	C[C@H]1COCCN1c1cc(CN2CCCN(C)CC2)nc(-c2ccc(NC(=O)NC3CC3)cc2)n1 [Example 49h, 3-cyclopropyl-1-[4-[4-[(4-methyl-1,4-diazepan-1-yl)methyl]-6-[(3S)-3-methylmorpholin-4-yl]pyrimidin-2-yl]phenyl]urea]
7.80	C[C@H]1COCCN1c1cc(CNC(C)(C)CO)nc(-c2ccc(NC(=O)NC3CC3)cc2)n1 [Example 49i, 3-cyclopropyl-1-[4-[4-[[(1-hydroxy-2-methyl-propan-2-yl)amino]methyl]-6-[(3S)-3-methylmorpholin-4-yl]pyrimidin-2-yl]phenyl]urea]
7.85	C[C@H]1COCCN1c1cc(CN2CC(O)C2)nc(-c2ccc(NC(=O)NC3CC3)cc2)n1 [Example 49k, 3-cyclopropyl-1-[4-[4-[(3-hydroxyazetidin-1-yl)methyl]-6-[(3S)-3-methylmorpholin-4-yl]pyrimidin-2-yl]phenyl]urea]
5.80	C[C@H]1COCCN1Cc1cc(N2CCOC[C@@H]2C)nc(-c2ccc(NC(=O)NC3CC3)cc2)n1 [Example 49l, 3-cyclopropyl-1-[4-[4-[(3S)-3-methylmorpholin-4-yl]-6-[[(3S)-3-methylmorpholin-4-yl]methyl]pyrimidin-2-yl]phenyl]urea]
6.48	C[C@H]1COCCN1c1cc(CNC2CC2)nc(-c2ccc(NC(=O)NCc3cnn(C)c3)cc2)n1 [Example 52a, 1-[4-[4-[(cyclopropylamino)methyl]-6-[(3S)-3-methylmorpholin-4-yl]pyrimidin-2-yl]phenyl]-3-[(1-methylpyrazol-4-yl)methyl]urea]
6.24	C[C@H]1COCCN1c1cc(CN(C)C2CC2)nc(-c2ccc(NC(=O)NCc3cnn(C)c3)cc2)n1 [Example 52b, 1-[4-[4-[(cyclopropyl-methyl-amino)methyl]-6-[(3S)-3-methylmorpholin-4-yl]pyrimidin-2-yl]phenyl]-3-[(1-methylpyrazol-4-yl)methyl]urea]
6.22	C[C@H]1COCCN1c1cc(CS(=O)(=O)CC(N)=O)nc(-c2ccc(NC(=O)NCc3cnn(C)c3)cc2)n1 [Example 53a]
7.52	C[C@H]1COCCN1c1cc(CS(=O)(=O)c2ccncc2)nc(-c2ccc(NC(=O)NCc3cnn(C)c3)cc2)n1 [Example 53c, 1-[4-[4-[(3S)-3-methylmorpholin-4-yl]-6-(pyridin-4-ylsulfonylmethyl)pyrimidin-2-yl]phenyl]-3-[(1-methylpyrazol-4-yl)methyl]urea]
